Laboratory results taken from ChEMBL document CHEMBL1152170 (Bioorg Med Chem Lett, 2008).

What was measured:
[1] = Permeability across human Caco-2 cells; assay type: ADME, cell-based; details: read-out: permeability
[2] = Stability in rabbit liver microsome after 1 hr; assay type: ADME, Oryctolagus cuniculus; details: liver microsomes, read-out: Stability

Question: Which Papp [1] does the source give for `COc1ccc(CNc2ncnc3c(CCO)c(OC)c(NC(C)=O)cc23)cc1Cl` here?
Answer: Its Papp is 17.3 ×10⁻⁶ cm/s.

Question: For `CCCc1c(OC)c(NC(=O)C(F)(F)F)cc2c(NCc3ccc(OC)c(Cl)c3)ncnc12`, which remaining at 1 h [2] is on record?
Answer: Its remaining at 1 h is over 80%.

Question: With `CCC(=O)Nc1cc2c(NCc3ccc(OC)c(Cl)c3)ncnc2c(CCO)c1OC` as the compound, how does the Papp [1] read?
Answer: Its Papp is 46.9 ×10⁻⁶ cm/s.

Question: What about the remaining at 1 h [2] of the same compound?
Answer: Its remaining at 1 h is over 80%.
